Data as given in ChEMBL document CHEMBL1150041, “Arylpiperazide derivatives of phenylpiperazines as a new class of potent and selective 5-HT1B receptor antagonists” (Bioorg Med Chem Lett, 1997).

Legend:
[1] = target: T1, 5-hydroxytryptamine receptor 1A (Homo sapiens, UniProt P08908); assay: Affinity for 5-hydroxytryptamine 1A receptor subtype
T1 sequence (P08908 whole entry): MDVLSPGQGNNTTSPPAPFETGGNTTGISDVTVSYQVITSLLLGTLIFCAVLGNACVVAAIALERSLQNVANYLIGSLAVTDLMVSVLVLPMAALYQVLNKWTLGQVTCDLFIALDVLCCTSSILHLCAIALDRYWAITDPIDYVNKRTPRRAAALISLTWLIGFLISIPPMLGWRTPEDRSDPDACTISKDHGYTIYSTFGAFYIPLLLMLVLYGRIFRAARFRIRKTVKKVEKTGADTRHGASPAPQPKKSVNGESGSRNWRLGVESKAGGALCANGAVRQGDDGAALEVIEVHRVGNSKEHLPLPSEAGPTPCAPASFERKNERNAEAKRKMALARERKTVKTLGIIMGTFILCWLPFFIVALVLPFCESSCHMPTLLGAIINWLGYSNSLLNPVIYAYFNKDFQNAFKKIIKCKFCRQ

[2] = target: T2, 5-hydroxytryptamine receptor 1B (Homo sapiens, UniProt P28222); assay: Affinity for 5-hydroxytryptamine 1B receptor subtype
[3] = target: 5-hydroxytryptamine receptor 1D (Homo sapiens, UniProt P28221); assay: Affinity for 5-hydroxytryptamine 1D receptor subtype
[4] = target: T2, 5-hydroxytryptamine receptor 1B; assay: The compound was evaluated for intrinsic activity against human cloned 5-hydroxytryptamine 1B receptor
[5] = target: T2, 5-hydroxytryptamine receptor 1B; assay: The compound was evaluated for antagonist potency at human cloned 5-hydroxytryptamine 1B receptor
[6] = target: T2, 5-hydroxytryptamine receptor 1B; assay: The compound was evaluated for intrinsic activity against human cloned 5-hydroxytryptamine 1B receptor; silent antagonist; assay type: functional
[7] = target: T2, 5-hydroxytryptamine receptor 1B; assay: The compound was evaluated for intrinsic activity against human cloned 5-hydroxytryptamine 1B receptor; Slient antagonist; assay type: functional; details: filed as antagonist

Sequence of 5-hydroxytryptamine receptor 1D (P28221 whole entry): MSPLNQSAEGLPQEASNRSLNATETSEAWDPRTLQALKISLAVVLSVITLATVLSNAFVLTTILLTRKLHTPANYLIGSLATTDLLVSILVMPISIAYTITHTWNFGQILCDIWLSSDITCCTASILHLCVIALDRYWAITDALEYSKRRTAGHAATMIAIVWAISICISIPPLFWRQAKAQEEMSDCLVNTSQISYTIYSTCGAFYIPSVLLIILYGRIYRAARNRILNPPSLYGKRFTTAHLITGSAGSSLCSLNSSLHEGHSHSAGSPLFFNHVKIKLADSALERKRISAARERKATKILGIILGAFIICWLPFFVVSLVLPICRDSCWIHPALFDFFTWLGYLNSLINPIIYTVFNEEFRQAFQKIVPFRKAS
T2 sequence (P28222 whole entry): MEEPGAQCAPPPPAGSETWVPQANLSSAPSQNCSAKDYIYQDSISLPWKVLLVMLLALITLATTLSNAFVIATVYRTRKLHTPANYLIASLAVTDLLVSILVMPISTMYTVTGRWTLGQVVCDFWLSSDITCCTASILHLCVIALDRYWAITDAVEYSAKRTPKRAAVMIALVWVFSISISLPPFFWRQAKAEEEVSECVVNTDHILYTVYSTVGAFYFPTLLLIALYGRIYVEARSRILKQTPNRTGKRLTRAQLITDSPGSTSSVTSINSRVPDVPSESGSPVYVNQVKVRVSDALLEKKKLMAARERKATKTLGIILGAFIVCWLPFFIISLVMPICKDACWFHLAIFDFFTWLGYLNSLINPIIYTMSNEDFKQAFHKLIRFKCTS

Row | Compound | Ki [1] [nM] | Ki [2] [nM] | Ki [3] [nM] | Kb [4] [nM] | KB [5] [nM] | Kb [6] [nM] | Intrinsic activity [7]
1 | COc1cccc(N2CCN(C(=O)Nc3ccc(OC)c(N4CCN(C)CC4)c3)CC2)c1 | 79 | 8 | 70 |  |  |  | 
2 | COc1ccc(NC(=O)c2ccc(-c3ccc(-c4noc(C)n4)cc3C)cc2)cc1N1CCN(C)CC1 [GR-127935] | 72 | 0.14 |  |  |  |  | 
3 | COc1ccc(N2CCN(C(=O)Nc3ccc(OC)c(N4CCN(C)CC4)c3)CC2)cc1 |  |  |  | 12 |  |  | 
4 | COc1ccc(NC(=O)N2CCN(c3c(C)cccc3C)CC2)cc1N1CCN(C)CC1 | 393 | 1.3 | 37 |  | 10 |  | 
5 | COc1ccc(NCC(=O)N2CCN(c3ccccc3C)CC2)cc1N1CCN(C)CC1 |  | 40 | 420 |  |  | 195 | 
6 | COc1ccc(NC(=O)N2CCN(c3ccccc3)CC2)cc1N1CCN(C)CC1 | 450 | 18 | 340 | 27 |  |  | 
7 | Cc1ccccc1N1CCN(C(=O)Oc2ccc(Cl)c(N3CCN(C)CC3)c2)CC1 | > 1000 | 150 | 3.6 |  |  |  | Antagonist
8 | COc1ccc(NC(=O)N2CCN(c3cccc4c3CCCC4)CC2)cc1N1CCN(C)CC1 | 257 | 0.5 | 26 | 39 |  |  | 
9 | COc1ccc(NC(=O)N2CCN(c3ccccc3C)CC2)cc1N1CCN(C)CC1 | 390 |  |  |  |  | 12 | 
10 | Cc1ccccc1N1CCN(C(=O)COc2ccc(Cl)c(N3CCN(C)CC3)c2)CC1 | > 1000 | 11 | 240 |  |  | 38 | 
11 | COc1ccc(NC(=O)N2CCN(c3ccc(C)cc3C)CC2)cc1N1CCN(C)CC1 | 571 | 1.8 | 88 |  | 1.9 |  | 
12 | COc1ccc(NC(=O)N2CCN(c3ccccc3OC)CC2)cc1N1CCN(C)CC1 |  |  | 90 | 16 |  |  | 
13 | Cc1nc(-c2ccc(-c3ccc(C(=O)N4CCc5cc6c(cc54)C4(CCN(C)CC4)CO6)cc3)c(C)c2)no1 [SB-224289] | > 1000 |  |  |  |  |  | 
